Assay results as given in ChEMBL document CHEMBL1201862, “PubChem BioAssay data set” (2004).
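Values below derive from 48-hour exposures of cells grown in 96-well plates, with endpoints linearly interpolated between the two concentrations bracketing the appropriate inhibition level. Abbreviation: GI50, concentration required for 50% inhibition of growth.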 Activity calls are given as the source filed them. Rule as the data show it: active = GI50 up to about 1.1 µM and inactive = higher.

What was measured:
Experiment in all cases: NCI anticancer screen, dose series, 48 h
[1] = system: CCRF-CEM
[2] = system: HCT-116
[3] = system: SF-295
[4] = system: SN12C
[5] = system: OVCAR-4
[6] = system: U-251
[7] = system: HOP-92
[8] = system: SK-MEL-2
[9] = system: NCI-H226
[10] = system: EKVX
[11] = system: M14
[12] = system: UACC-62
[13] = system: PC-3
[14] = system: MOLT-4
[15] = system: IGROV-1
[16] = system: OVCAR-5
[17] = system: HOP-62
[18] = system: ACHN
[19] = system: NCI/ADR-RES
[20] = system: SF-539
[21] = system: Malme-3M
[22] = system: UO-31
[23] = system: NCI-H522
[24] = system: OVCAR-3
[25] = system: MDA-MB-231
[26] = system: COLO 205
[27] = system: SW-620
[28] = system: LOX IMVI
[29] = system: DU-145
[30] = system: 786-0
[31] = system: RXF 393
[32] = system: CAKI-1
[33] = system: MDA-N
[34] = system: K562
[35] = system: A498
[36] = system: HCT-15
[37] = system: SNB-75
[38] = system: TK-10
[39] = system: A549
[40] = system: BT-549
[41] = system: HL-60
[42] = system: MDA-MB-435
[43] = system: KM12
[44] = system: UACC-257
[45] = system: HCC 2998
[46] = system: SK-OV-3
[47] = system: MCF7
[48] = system: SNB-19
[49] = system: T47D
[50] = system: SR
[51] = system: SK-MEL-28
[52] = system: RPMI-8226
[53] = system: OVCAR-8
[54] = system: SK-MEL-5
[55] = system: HT-29
[56] = system: Hs-578T
[57] = system: NCI-H23
[58] = system: SF-268
[59] = system: NCI-H460

Q: `N#CC(NCc1cccc(CNC(C#N)c2ccccc2)c1)c1ccccc1` (configuration not stated) was tested. Which GI50 [1] did it give?
A: 18.1 µM (inactive)

Q: And the GI50 [2]?
A: 23.8 µM (inactive)

Q: And the GI50 [3]?
A: 18.7 µM (inactive)

Q: What about the GI50 [4] of the same molecule?
A: 77.8 µM (inactive)

Q: And the GI50 [5]?
A: 56 µM (inactive)

Q: What about the GI50 [6] of the same molecule?
A: 31.1 µM (inactive)

Q: What about the GI50 [7] of the same molecule?
A: 34.3 µM (inactive)

Q: What about the GI50 [8] of the same molecule?
A: > 100 µM (inactive)

Q: And the GI50 [9]?
A: > 100 µM (inactive)

Q: What about the GI50 [10] of the same molecule?
A: 60 µM (inactive)

Q: And the GI50 [11]?
A: 26.1 µM (inactive)

Q: And the GI50 [12]?
A: 65.2 µM (inactive)

Q: What about the GI50 [13] of the same molecule?
A: 42.9 µM (inactive)

Q: And the GI50 [14]?
A: 16 µM (inactive)

Q: What about the GI50 [15] of the same molecule?
A: 18.1 µM (inactive)

Q: And the GI50 [16]?
A: > 100 µM (inactive)

Q: And the GI50 [17]?
A: > 100 µM (inactive)

Q: What about the GI50 [18] of the same molecule?
A: > 100 µM (inactive)

Q: And the GI50 [19]?
A: > 100 µM (inactive)

Q: And the GI50 [20]?
A: 0.0261 µM (active)

Q: And the GI50 [21]?
A: 26.9 µM (inactive)

Q: What about the GI50 [22] of the same molecule?
A: 94.4 µM (inactive)

Q: And the GI50 [23]?
A: 40.3 µM (inactive)

Q: What about the GI50 [24] of the same molecule?
A: > 100 µM (inactive)

Q: And the GI50 [25]?
A: 26.2 µM (inactive)

Q: What about the GI50 [26] of the same molecule?
A: 19.5 µM (inactive)

Q: And the GI50 [27]?
A: 24.5 µM (inactive)

Q: And the GI50 [28]?
A: 15 µM (inactive)

Q: And the GI50 [29]?
A: > 100 µM (inactive)

Q: And the GI50 [30]?
A: 35.6 µM (inactive)

Q: What about the GI50 [31] of the same molecule?
A: 60.4 µM (inactive)

Q: What about the GI50 [32] of the same molecule?
A: > 100 µM (inactive)

Q: And the GI50 [33]?
A: 37.2 µM (inactive)

Q: And the GI50 [34]?
A: 17.1 µM (inactive)

Q: And the GI50 [35]?
A: > 100 µM (inactive)

Q: And the GI50 [36]?
A: 25.8 µM

Q: And the GI50 [37]?
A: 28.9 µM (inactive)

Q: And the GI50 [38]?
A: 46.2 µM (inactive)

Q: What about the GI50 [39] of the same molecule?
A: 28.7 µM (inactive)

Q: And the GI50 [40]?
A: 24.7 µM (inactive)

Q: What about the GI50 [41] of the same molecule?
A: 20.7 µM (inactive)

Q: And the GI50 [42]?
A: 99.8 µM (inactive)

Q: And the GI50 [43]?
A: 22.3 µM (inactive)

Q: What about the GI50 [44] of the same molecule?
A: 59.6 µM (inactive)

Q: What about the GI50 [45] of the same molecule?
A: 14.9 µM (inactive)

Q: What about the GI50 [46] of the same molecule?
A: > 100 µM (inactive)

Q: What about the GI50 [47] of the same molecule?
A: 19.3 µM (inactive)

Q: What about the GI50 [48] of the same molecule?
A: 64.4 µM (inactive)

Q: What about the GI50 [49] of the same molecule?
A: 48.6 µM (inactive)

Q: And the GI50 [50]?
A: 25.8 µM (inactive)

Q: And the GI50 [51]?
A: 18.1 µM (inactive)

Q: And the GI50 [52]?
A: 21.1 µM (inactive)

Q: And the GI50 [53]?
A: 67 µM (inactive)

Q: And the GI50 [54]?
A: 42.3 µM (inactive)

Q: What about the GI50 [55] of the same molecule?
A: 16.4 µM (inactive)

Q: What about the GI50 [56] of the same molecule?
A: 32.8 µM (inactive)

Q: And the GI50 [57]?
A: > 100 µM (inactive)

Q: What about the GI50 [58] of the same molecule?
A: 52.1 µM (inactive)

Q: What does the source list for `CC1=CCC[C@@H]2[C@@](C)(Cc3cc(O)ccc3O)[C@H](C)CC[C@@]12C`?
A: GI50 [1]: 2.1 µM (inactive); GI50 [2]: 5.13 µM (inactive); GI50 [3]: 7.28 µM (inactive); GI50 [4]: 9.2 µM (inactive); GI50 [5]: 12.1 µM (inactive); GI50 [6]: 3.89 µM (inactive); GI50 [7]: 4.84 µM (inactive); GI50 [8]: 14.5 µM (inactive); GI50 [9]: 16.2 µM (inactive); GI50 [10]: 6.5 µM (inactive); GI50 [11]: 4.94 µM (inactive); GI50 [12]: 10.5 µM (inactive); GI50 [13]: 4.33 µM (inactive); GI50 [14]: 3.48 µM (inactive); GI50 [15]: 4.76 µM (inactive); GI50 [16]: 13.4 µM (inactive); GI50 [17]: 9.62 µM (inactive); GI50 [18]: 6.25 µM (inactive); GI50 [19]: 5.24 µM (inactive); GI50 [20]: 6.18 µM (inactive); GI50 [21]: 16.4 µM (inactive); GI50 [22]: 5.33 µM (inactive); GI50 [23]: 4.83 µM (inactive); GI50 [24]: 4.69 µM (inactive); GI50 [25]: 11.9 µM (inactive); GI50 [26]: 18.2 µM (inactive); GI50 [27]: 6.52 µM (inactive); GI50 [28]: 4.99 µM (inactive); GI50 [29]: 10.3 µM (inactive); GI50 [30]: 6.49 µM (inactive); GI50 [31]: 6.44 µM (inactive); GI50 [32]: 11.3 µM (inactive); GI50 [33]: 5.53 µM (inactive); GI50 [34]: 3.48 µM (inactive); GI50 [35]: 15.3 µM (inactive); GI50 [36]: 5 µM; GI50 [37]: 5.47 µM (inactive); GI50 [38]: 9.08 µM (inactive); GI50 [39]: 4.94 µM (inactive); GI50 [40]: 5.47 µM (inactive); GI50 [59]: 5.83 µM (inactive); GI50 [41]: 1.81 µM (inactive); GI50 [42]: 5.2 µM (inactive); GI50 [43]: 4.54 µM (inactive); GI50 [44]: 11.5 µM (inactive); GI50 [45]: 7.66 µM (inactive); GI50 [46]: 12.6 µM (inactive); GI50 [47]: 4.97 µM (inactive); GI50 [48]: 7.57 µM (inactive); GI50 [49]: 5.38 µM (inactive); GI50 [50]: 2.38 µM (inactive); GI50 [51]: 8.81 µM (inactive); GI50 [52]: 3.44 µM (inactive); GI50 [53]: 5.45 µM (inactive); GI50 [54]: 5.43 µM (inactive); GI50 [55]: 17.7 µM (inactive); GI50 [56]: 5.92 µM (inactive); GI50 [57]: 5.87 µM (inactive); GI50 [58]: 7.43 µM (inactive)
